Measurements as given in publication PMC6940912, “Novel Drug-Like Somatostatin Receptor 4 Agonists are Potential Analgesics for Neuropathic Pain” (International Journal of Molecular Sciences, 2019).

Assays:
sst4 receptor = biological target: T1, sst4 receptor (Homo sapiens, UniProt P31391); test: sst4 receptor-linked G-protein activation, [35S]GTPγS binding assay on membranes of sst4-expressing CHO cells; type: biochemical; settings: for EC50: 1 nM to 10 µM, n = 3; for Emax: [35S]GTPγS binding, mean ± SEM, n = 3, read-out: Maximal activation over the basal activity of the receptor (efficacy)
T1 construct: expressed in transfected cells; host or cells: CHO cells
Protocol: Membrane fractions were prepared from CHO cells, which express the sst4 receptor, in Tris–ethylene glycol-bis(2-aminoethyl)tetraacetic acid (Tris–EGTA) buffer (50 mM Tris–HCl (Sigma, St. Louis, MO, USA), 1 mM EGTA (Sigma, St. Louis, MO, USA), 3 mM MgCl2 (Sigma, St. Louis, MO, USA), 100 mM NaCl (Sigma, St. Louis, MO, USA), pH 7.4, 10 μg of protein/sample). The fractions were incubated in the buffer containing 0.05 nM guanosine triphosphate (GTP) (BioChemica International Inc., Melbourne, Florida, USA), labeled on the gamma phosphate group with ^35S ([^35S]GTPγS) (Isotop Institute, Budapest, Hungary) and increasing concentrations (1 nM to 10 µM) of C1, C2, C3 and C4 compounds for 60 min at 30 °C, in the presence of 30 μM guanosine diphosphate (GDP) (Sigma, St. Louis, MO, USA). We determined the nonspecific binding in the presence of 10 μM unlabeled GTPγS and total binding in the absence of test compounds. Samples were filtrated through Whatman GF/B glass fiber filters using 48-well Slot Blot Manifold from Cleaver Scientific (Cleaver Scientific Ltd., Rugby, Warwickshire, United Kingdom). Filters were washed with ice-cold 50 mM Tris–HCl buffer (pH 7.4) and radioactivity was measured in a β-counter (PerkinElmer Inc., Waltham, MA, USA). The test-compound-induced G-protein activation was given as percentage over the specific [^35S]GTPγS binding detected in the absence of agonists.
(§1) In the sst4 receptor activation assay, all the compounds were dissolved in dimethyl sulfoxide (DMSO) (Szkarabeusz Ltd., Pécs, Hungary). The concentration of the stock solutions was 10 mM and was diluted with distilled water to reach the final concentrations. For the in vivo experiments, 1 mg of the compounds was rubbed dry in a braying mortar, suspended thoroughly in 1 mL 1.25% methylcellulose (MC) (Pharmacy of University of Pécs, Pécs, Hungary) solution and then dissolved in sterile bidistilled water to get a 1000 µg/mL stock solution freshly every experimental day. Most microsuspensions looked opalescent; they were shaken properly, sonicated, and further diluted with 1.25% MC to obtain the 25 µg/mL solution for oral administrations (0.2 mL/10 g body weight for the 500 µg/kg dose). The solutions were shaken and sonicated again directly before use. The vehicle was always 1.25% MC dissolved in sterile bidistilled water.

Male NMRI mice [1] = test: RTX-induced acute neurogenic inflammatory thermal allodynia and mechanical hyperalgesia; type: in vivo, mouse; settings: oral pretreatment 1 h before intraplantar RTX, printed dose 500 µg/kg
Protocol: The investigated compounds (500 µg/kg p.o.) or the vehicle were administered orally 1 h before the induction of the acute neurogenic inflammation by intraplantar RTX (Sigma, St. Louis, MO, USA) injection (20 µL, 0.1 µg/mL) into the right hindpaw. RTX evokes an acute neurogenic inflammatory reaction with the development of a rapid thermal allodynia, mainly due to peripheral sensitization mechanisms, and a later developing mechanical hyperalgesia due also to central sensitization. The nociceptive heat threshold was determined before (control) and 10, 20 and 30 min after RTX administration with an increasing-temperature hot plate (IITC Life Science, Woodland Hills, CA, USA). […] The mechanonociceptive threshold was measured with an electronic von Frey device (dynamic plantar aesthesiometer (DPA), Ugo Basile, Comerio, Italy) prior to RTX injection and 30, 60 and 90 min afterwards. The measurement at 30 min was performed immediately after the last heat threshold measurement. The experiment consisted of two separate series on consecutive days and the number of animals in the control group was six per day. Therefore, the control group contained 12 mice, and six and five mice were used in the C1- and C2-treated groups, respectively.
as §1
Male NMRI mice (8–12 weeks old) bred in the Laboratory Animal House of the Department of Pharmacology and Pharmacotherapy of the University of Pecs were kept in standard plastic cages at 24–25 °C, under a 12–12 h light–dark cycle and provided with standard rodent chow and water ad libitum. […]

Male NMRI mice [2] = test: Partial sciatic nerve ligation-induced chronic traumatic neuropathic mechanical hyperalgesia; type: in vivo, mouse
Protocol: After conditioning and two control mechanonociceptive measurements on 2 consecutive days, mice were anaesthetized by the combination of ketamine (100 mg/kg, i.p.) and xylazine (10 mg/kg, i.p.). Traumatic mononeuropathy was achieved by one-third to one-half part ligation of the right sciatic nerve. Significant decrease in the mechanical threshold develops 7 days after operation. The mechanonociceptive threshold of the plantar surface of the hindpaws was measured by DPA on the 7th postoperative day. The paw withdrawal threshold was obtained in grams (the maximal value was 10 g; ramp time of 4 s). The compounds (500 µg/kg) or the vehicle were administered orally on day 7, one hour before the repeated measurement. The experiment consisted of separate series on 3 consecutive days, and there were 2–3 vehicle-treated control animals in every series. Therefore, each group contained 8 mice.
as §1
Male NMRI mice (8–12 weeks old) bred in the Laboratory Animal House of the Department of Pharmacology and Pharmacotherapy of the University of Pecs were kept in standard plastic cages at 24–25 °C, under a 12–12 h light–dark cycle and provided with standard rodent chow and water ad libitum. All experimental procedures complied with the recommendations of the 1998/XXVIII Act of the Hungarian Parliament on Animal Protection and Consideration Decree of Scientific Procedures of Animal Experiments (63/2010) and were approved by the Ethics Committee on Animal Research of Pecs University according to the Ethical Codex of Animal Experiments; license was given (license No. BA1/35/55-50/2017). We made all efforts to minimize the number and suffering of the animals used in this study.

[3] = day 7 after sciatic nerve ligation, 500 µg/kg oral, 1 h later, n = 8
[4] = day 7 after sciatic nerve ligation, pretreatment self-control, n = 8

T1 sequence (P31391 whole entry): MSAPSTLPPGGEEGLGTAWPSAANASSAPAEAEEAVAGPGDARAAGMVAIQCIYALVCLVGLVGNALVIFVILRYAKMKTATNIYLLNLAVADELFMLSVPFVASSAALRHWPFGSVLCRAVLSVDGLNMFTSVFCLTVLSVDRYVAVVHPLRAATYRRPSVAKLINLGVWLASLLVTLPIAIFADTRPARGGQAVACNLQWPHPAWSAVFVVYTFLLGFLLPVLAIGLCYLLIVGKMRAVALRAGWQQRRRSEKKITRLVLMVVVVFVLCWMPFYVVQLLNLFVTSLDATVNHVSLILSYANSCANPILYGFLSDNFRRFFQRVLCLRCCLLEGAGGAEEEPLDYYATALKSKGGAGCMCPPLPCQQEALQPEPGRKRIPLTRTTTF

| SMILES | EC50 (sst4 receptor) [nM] | Emax (sst4 receptor) [%] | Effect on acute neurogenic inflammatory heat hyperalgesia (Male NMRI mice [1]; at 10 and 30 min) | Effect on RTX-induced mechanical hyperalgesia (Male NMRI mice [1]; at 30 min) | Mechanonociceptive threshold of operated limb, 1 h after treatment (Male NMRI mice [2]; [3]) [g] | Neuropathic mechanical hyperalgesia, 1 h after treatment (Male NMRI mice [2]; [3]) | Mechanonociceptive threshold of operated limb, before treatment (Male NMRI mice [2]; [4]) [g] | Neuropathic mechanical hyperalgesia, before treatment (Male NMRI mice [2]; [4]) | Anti-hyperalgesic effect on neuropathic mechanical hyperalgesia (Male NMRI mice [2]; traumatic nerve injury, single oral 500 µg/kg) [%] |
| --- | --- | --- | --- | --- | --- | --- | --- | --- | --- |
| COc1ccc(CCNc2ncnc3c2c(C)c(C)n3Cc2ccccc2)cc1 [Compound 2, (7-Benzyl-5,6-dimethyl-7H-pyrrolo[2,3-d]pyrimidin-4-yl)-[2-(4-methoxy-phenyl)-ethyl]-amine] | 66 | 203 | not | not | 8.04 ± 0.31 | 15.70% ± 2.84 | 6.53 ± 0.30 | 31.39% ± 3.39 | 50 |
| COc1ccc(CNc2ncnc3c2c(C)c(C)n3Cc2ccccc2)cc1 [Compound 4, 4-Methoxy-benzyl-[7-benzyl-5,6-dimethyl-7H-pyrrolo[2,3-d]pyrimidin-4-yl]-amine] | 70 | 177 |  |  |  |  |  |  |  |
